Measurements reported in PMC10541190 (The Journal of Clinical Investigation, 2023).
pEC50: −log10 of the molar value. Several values for one entry are separate records, joined by “and”; a condition that tells them apart may be missing. Equal entries are not always repeated. Where two headings read alike, the source gives them in different places.

Columns and labels:
[1] = test system: SARS-CoV-2 (USA-WA1/2020); test: microbe, parasite or virus in culture; type: cell-based; settings: Severe acute respiratory syndrome coronavirus 2, Vero, 24 h, read-out: SARS-CoV-2 EC50
VEEV (TC-83) [2] = type: cell-based
DENV2 = type: cell-based
in vitro [3] = settings: African green monkey
in vitro [4] = settings: human, Huh7 cell viability (%)
[5] = test system: SARS-CoV-2 (Belgium-GHB-03021); type: cell-based
[6] = test system: SARS-CoV-2 (USA-WA1/2020); test: microbe, parasite or virus in culture; type: cell-based; settings: Severe acute respiratory syndrome coronavirus 2, Calu-3, read-out: EC50, SARS-CoV-2 infection
VEEV (TC-83) [7] = test: microbe, parasite or virus in culture; type: cell-based; settings: Venezuelan equine encephalitis virus, U-87 MG, read-out: EC50, VEEV (TC-83) infection
ErbB4 [8] = biological target: T1, ErbB4 (Homo sapiens, UniProt Q15303); test: biochemical; settings: read-out: ErbB4 activity (%)
T1 sequence (Q15303 26-1308): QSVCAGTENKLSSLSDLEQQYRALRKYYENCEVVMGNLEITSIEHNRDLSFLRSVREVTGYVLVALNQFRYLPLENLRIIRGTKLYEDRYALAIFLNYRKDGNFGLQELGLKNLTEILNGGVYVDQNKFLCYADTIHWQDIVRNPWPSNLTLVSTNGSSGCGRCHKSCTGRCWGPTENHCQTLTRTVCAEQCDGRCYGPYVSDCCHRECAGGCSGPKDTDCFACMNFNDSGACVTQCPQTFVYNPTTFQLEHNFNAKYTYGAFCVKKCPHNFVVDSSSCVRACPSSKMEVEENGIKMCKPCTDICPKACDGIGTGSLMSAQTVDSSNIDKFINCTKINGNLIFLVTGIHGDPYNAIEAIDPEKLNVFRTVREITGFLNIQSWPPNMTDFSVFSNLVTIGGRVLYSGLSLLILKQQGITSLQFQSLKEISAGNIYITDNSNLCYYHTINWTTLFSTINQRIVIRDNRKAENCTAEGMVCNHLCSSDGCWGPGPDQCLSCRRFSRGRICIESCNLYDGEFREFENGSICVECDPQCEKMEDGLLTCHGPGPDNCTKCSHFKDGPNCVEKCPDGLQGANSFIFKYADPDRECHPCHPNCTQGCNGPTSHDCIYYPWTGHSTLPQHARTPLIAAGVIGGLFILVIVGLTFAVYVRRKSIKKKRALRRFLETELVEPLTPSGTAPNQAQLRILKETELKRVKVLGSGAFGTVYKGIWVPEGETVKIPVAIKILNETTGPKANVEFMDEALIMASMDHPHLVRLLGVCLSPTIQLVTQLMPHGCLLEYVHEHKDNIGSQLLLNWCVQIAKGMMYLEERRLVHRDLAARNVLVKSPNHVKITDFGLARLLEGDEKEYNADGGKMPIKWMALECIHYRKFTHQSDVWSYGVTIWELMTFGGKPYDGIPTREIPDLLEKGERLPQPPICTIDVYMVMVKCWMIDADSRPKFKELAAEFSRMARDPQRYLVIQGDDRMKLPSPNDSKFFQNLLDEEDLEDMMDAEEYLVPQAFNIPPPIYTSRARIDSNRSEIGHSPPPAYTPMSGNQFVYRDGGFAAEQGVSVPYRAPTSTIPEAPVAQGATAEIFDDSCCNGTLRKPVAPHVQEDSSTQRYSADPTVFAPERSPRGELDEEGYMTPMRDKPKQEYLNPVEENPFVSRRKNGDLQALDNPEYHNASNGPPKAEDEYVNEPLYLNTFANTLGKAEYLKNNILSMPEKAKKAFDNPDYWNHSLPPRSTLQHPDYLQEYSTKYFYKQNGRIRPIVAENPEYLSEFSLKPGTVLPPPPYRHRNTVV

ErbB1 (EGFR) = settings: read-out: KD of binding or IC50 (nM), ErbB1; cited from earlier work
ErbB4 [9] = biological target: T1, ErbB4; settings: read-out: KD of binding or IC50 (nM), ErbB4; cited from earlier work
in vitro [10] = settings: human
in vitro [11] = settings: human; remark: listed apart in the source

SMILES: CC(C)(C)c1cc(/C=C(\C#N)C(N)=S)cc(C(C)(C)C)c1O [Tyrphostin AG 879]
- pEC50 [1]: 6.22
- replication of TC-83 (VEEV (TC-83) [2]): dose-dependently inhibited replication
- replication of DENV2 (DENV2): dose-dependently inhibited replication
- CC50 (in vitro [3]): > 20000 nM
- viability at 0.37 µM (in vitro [4]): 100%
- viability at 3.33 µM (in vitro [4]): 98.8%
- viability at 10 µM (in vitro [4]): 95.1%
- viability at […] (in vitro [4]): 102% and 98.9%

SMILES: COc1ccc2cc1Oc1ccc(cc1)C[C@H]1c3cc(c(OC)cc3CCN1C)Oc1c(OC)c(OC)cc3c1[C@H](C2)N(C)CC3 [Tetrandrine, Berbaman, 6,6',7, 12-tetramethoxy-2,2'-dimethyl-, (1β)-]
- Fluorescence (%area) [5]: 93.6 %area
- pEC50 [1]: 5.85
- CC50 (in vitro [3]): > 20000 nM
- viability at 3.33 µM (in vitro [4]): 93.9%
- viability at 10 µM (in vitro [4]): 44%
- viability at […] (in vitro [4]): 96.8% and 97%

SMILES: N#C[C@@]1(c2ccc3c(N)ncnn23)O[C@H](CO)[C@@H](O)[C@H]1O [GS-441524]
- rescue of Vero-eGFP cells from SARS-CoV-2-induced lethality, dose response [5]: dose-dependent anti-SARS-CoV-2 activity

SMILES: CNC(=O)CN1CCC(Oc2cc3c(Nc4cccc(Cl)c4F)ncnc3cc2OC)CC1 [Sapitinib]
- pEC50 [6]: 5.74
- pEC50 (VEEV (TC-83) [7]): 5.59
- activity at 0.00305 µM (ErbB4 [8]): 37.7%
- activity at 0.0274 µM (ErbB4 [8]): 10.2%
- activity at 0.08 µM (ErbB4 [8]): 5.52%
- activity at 0.25 µM (ErbB4 [8]): 2.84%
- activity at 0.74 µM (ErbB4 [8]): 1.25%
- activity at 2.22 µM (ErbB4 [8]): 2.36%
- activity at 6.67 µM (ErbB4 [8]): 1.4%
- activity at 20 µM (ErbB4 [8]): 1.27%
- activity at 60 µM (ErbB4 [8]): 0%
- activity at […] (ErbB4 [8]): 18.7% and 54.8%
- IC50 (ErbB1 (EGFR)): 12 nM
- IC50 (ErbB4 [9]): 1.4 nM
- CC50 (in vitro [10]): > 20000 nM
- viability (in vitro [10]; Calu-3 viability (%)): 82.2%
- CC50 (in vitro [11]): > 20000 nM

SMILES: CNc1ccc2oc(C[C@H]3O[C@@]4(CC[C@H]3C)O[C@H]([C@H](C)C(=O)c3ccc[nH]3)[C@H](C)C[C@H]4C)nc2c1C(=O)O [Calcimycin]
- pEC50 [1]: 6.22
- replication of TC-83 (VEEV (TC-83) [2]): dose-dependently inhibited replication
- replication of DENV2 (DENV2): dose-dependently inhibited replication
- CC50 (in vitro [3]): > 20000 nM
- viability at 0.37 µM (in vitro [4]): 98%
- viability at 3.33 µM (in vitro [4]): 50.5%
- viability at 10 µM (in vitro [4]): 23.5%
- viability at […] (in vitro [4]): 77.7% and 102%

SMILES: COc1c(O)cc2oc3cc(O)c(CC=C(C)C)c(O)c3c(=O)c2c1CC=C(C)C [Mangostin, 9H-Xanthen-9-one, 1,3,6-trihydroxy-7-methoxy-2,8-bis (3-methyl-2-butenyl)-]
- Fluorescence (%area) [5]: 102.5 %area

SMILES: O=C1NCN(c2ccccc2)C12CCN(CCCC(c1ccc(F)cc1)c1ccc(F)cc1)CC2 [Fluspirilene]
- pEC50 [1]: 4.82
- anti-TC-83 and DENV2 activity compared with anti-SARS-CoV-2 activity (VEEV (TC-83) [2]): more potent
- CC50 (in vitro [3]): > 20000 nM
- viability at 0.37 µM (in vitro [4]): 93.4%
- viability at 3.33 µM (in vitro [4]): 87.3%
- viability at 10 µM (in vitro [4]): 70.9%
- viability at […] (in vitro [4]): 93.9% and 95.5%

SMILES: O[C@H]1[C@H]2c3cc4c(cc3CN3CCC(=C[C@@H]1O)[C@H]23)OCO4 [Lycorine]
- pEC50 [1]: 6.30
- replication of TC-83 (VEEV (TC-83) [2]): dose-dependently inhibited replication
- replication of DENV2 (DENV2): dose-dependently inhibited replication
- CC50 (in vitro [3]): > 20000 nM
- viability at 0.37 µM (in vitro [11]; U-87 MG cell viability (%)): 92.9%
- viability at 3.33 µM (in vitro [11]; U-87 MG cell viability (%)): 67.1%
- viability at 10 µM (in vitro [11]; U-87 MG cell viability (%)): 61.2%
- viability at […] (in vitro [11]; U-87 MG cell viability (%)): 81.7% and 97.3%
- viability at 0.37 µM (in vitro [4]): 93.2%
- viability at 3.33 µM (in vitro [4]): 68.1%
- viability at 10 µM (in vitro [4]): 66.6%
- viability at […] (in vitro [4]): 82.9% and 95%
